Values after ≈ are worked out from the molar mass of the structure shown. Active and inactive are the calls of the source. No cut-off for these calls is given here.
Experiments:
[1] = target: T1, ATP-dependent translocase ABCB1 (Homo sapiens, UniProt P08183); assay: Inhibition of P-gp efflux in vincristine resistant human Eca-109 cells assessed as increase in rhodamine 123 fluorescence intensity at 30 uM; assay type: cell-based; settings: eca-109, 30 µM, TDE = time-dependent effect, time 0-5 hrs
ECa-109 cell line [2] = assay: Cytotoxicity against vincristine resistant human Eca-109 cells incubated for 48 hrs by CCK-8 method relative to control; assay type: functional; set-up: concentration or dose not given beside the values
ECa-109 cell line [3] = assay: Reversal of vincristine-resistance in human Eca-109 cells assessed as fold reversal by measuring cell viability incubated for 48 hrs by CCK-8 method relative to vincristine alone; assay type: functional
[4] = Solubility of the compound in water at 25 degree C by shake flask method based UV-spectrophotometric method; assay type: physicochemical
ECa-109 cell line [5] = assay: Cytotoxicity against vincristine resistant human Eca-109 cells incubated for 48 hrs by CCK-8 method; assay type: functional, cell-based; settings: ECa-109, 48 h
[6] = Cytotoxicity against HEK293T cells incubated for 48 hrs by CCK-8 method; assay type: toxicity, cell-based, HEK-293T; settings: human
ECa-109 cell line [7] = assay: Reversal of vincristine-resistance in human Eca-109 cells assessed as fold reversal by measuring cell viability at 1 uM incubated for 48 hrs by CCK-8 method relative to vincristine alone; assay type: functional
ECa-109 cell line [8] = assay: Reversal of vincristine-resistance in human Eca-109 cells assessed as fold reversal by measuring cell viability at 5 uM incubated for 48 hrs by CCK-8 method relative to vincristine alone; assay type: functional
ECa-109 cell line [9] = assay: Induction of apoptosis in vincristine resistant human Eca-109 cells assessed as early apoptotic cells at 5 uM incubated for 24 hrs by AnnexinV-FITC/PI staining based flow cytometric analysis (reference value: 2.30%); assay type: functional
ECa-109 cell line [10] = assay: Induction of apoptosis in vincristine resistant human Eca-109 cells assessed as late apoptotic cells at 1 uM incubated for 24 hrs by AnnexinV-FITC/PI staining based flow cytometric analysis (reference value: 7.19%); assay type: functional
ECa-109 cell line [11] = assay: Induction of apoptosis in vincristine resistant human Eca-109 cells assessed as late apoptotic cells at 5 uM incubated for 24 hrs by AnnexinV-FITC/PI staining based flow cytometric analysis (reference value: 7.19%); assay type: functional
ECa-109 cell line [12] = assay: Induction of apoptosis in vincristine resistant human Eca-109 cells assessed as viable cells at 1 uM incubated for 24 hrs in presence of vincristine by AnnexinV-FITC/PI staining based flow cytometric analysis (reference value: 89.2%); assay type: functional; settings: read-out: Activity
ECa-109 cell line [13] = assay: Induction of apoptosis in vincristine resistant human Eca-109 cells assessed as viable cells at 2.5 uM incubated for 24 hrs in presence of vincristine by AnnexinV-FITC/PI staining based flow cytometric analysis (reference value: 89.2%); assay type: functional; settings: read-out: Activity
ECa-109 cell line [14] = assay: Induction of apoptosis in vincristine resistant human Eca-109 cells assessed as viable cells at 5 uM incubated for 24 hrs in presence of vincristine by AnnexinV-FITC/PI staining based flow cytometric analysis (reference value: 89.2%); assay type: functional; settings: read-out: Activity
ECa-109 cell line [15] = assay: Induction of apoptosis in vincristine resistant human Eca-109 cells assessed as early apoptotic cells at 1 uM incubated for 24 hrs in presence of vincristine by AnnexinV-FITC/PI staining based flow cytometric analysis (reference value: 4.43%); assay type: functional
ECa-109 cell line [16] = assay: Induction of apoptosis in vincristine resistant human Eca-109 cells assessed as late apoptotic cells at 5 uM incubated for 24 hrs in presence of vincristine by AnnexinV-FITC/PI staining based flow cytometric analysis (reference value: 6.01%); assay type: functional
ECa-109 cell line [17] = assay: Induction of apoptosis in vincristine resistant human Eca-109 cells assessed as necrotic cells at 2.5 uM incubated for 24 hrs in presence of vincristine by AnnexinV-FITC/PI staining based flow cytometric analysis (reference value: 0.35%); assay type: functional
ECa-109 cell line [18] = assay: Synergistic anticancer activity in vincristine resistant human Eca-109 cells assessed as combination index at 10:1 compound to vincristine ratio measured after 48 hrs; assay type: functional
[19] = Toxicity in nude mouse assessed as change in body weight at 30 mg/kg administered every 2 days for 21 days; assay type: organism-based; settings: in vivo, 48 h, time 2 day
ECa-109 cell line [20] = assay: Synergistic antitumor activity against in vincristine resistant p-gp overexpressing human Eca-109 cells xenografted in nude mouse assessed as increase in nuclear pyknosis at 30 mg/kg, IG administered every two days for 21 days in presence of vincristine by TUNEL analysis; assay type: functional, organism-based; settings: time 21.0 day
[21] = Tmax in Sprague-Dawley rat at 30 mg/kg, po measured upto 24 hrs by UPLC/MS/MS analysis; assay type: ADME, organism-based; settings: in vivo
[22] = Terminal elimination half life in Sprague-Dawley rat at 3 mg/kg, iv measured upto 24 hrs by UPLC/MS/MS analysis; assay type: ADME, organism-based; settings: in vivo, read-out: LambdaZ (converted)
[23] = Half life in Sprague-Dawley rat at 30 mg/kg, po measured upto 24 hrs by UPLC/MS/MS analysis; assay type: ADME, organism-based; settings: in vivo
[24] = MRT (0 to infinity) in Sprague-Dawley rat at 3 mg/kg, iv measured upto 24 hrs by UPLC/MS/MS analysis; assay type: ADME, organism-based; settings: in vivo
[25] = AUC (0 to t) in Sprague-Dawley rat at 3 mg/kg, iv measured upto 24 hrs by UPLC/MS/MS analysis; assay type: ADME, organism-based; set-up: time < 24 hrs, dose 3 mg/kg, route iv; settings: in vivo
[26] = AUC (0 to infinity) in Sprague-Dawley rat at 3 mg/kg, iv measured upto 24 hrs by UPLC/MS/MS analysis; assay type: ADME, organism-based; set-up: time < 24 hrs, dose 3 mg/kg, route iv; settings: in vivo
[27] = AUC (0 to infinity) in Sprague-Dawley rat at 30 mg/kg, po measured upto 24 hrs by UPLC/MS/MS analysis; assay type: ADME, organism-based; set-up: time < 24 hrs, dose 30 mg/kg, route po; settings: in vivo
[28] = Apparent oral clearance in Sprague-Dawley rat at 3 mg/kg, iv measured upto 24 hrs by UPLC/MS/MS analysis; assay type: ADME, organism-based; settings: in vivo
[29] = Apparent oral clearance in Sprague-Dawley rat at 30 mg/kg, po measured upto 24 hrs by UPLC/MS/MS analysis; assay type: ADME, organism-based; settings: in vivo
ECa-109 = assay: Downregulation of P-gp expression in vincristine resistant human Eca-109 cells at 2.5 to 10 uM incubated for 24 hrs by Western blot analysis; assay type: functional, cell-based; settings: dose 2.5-10 µM
[30] = target: T1, ATP-dependent translocase ABCB1; assay: Inhibition of P-gp efflux in vincristine resistant human Eca-109 cells assessed as increase in rhodamine 123 accumulation incubated for 3 hrs by DAPI staining based laser-scanning confocal microscopy analysis; assay type: cell-based; settings: eca-109, 3 h, at 1 to 5 µM, dose 1-5 µM
[31] = target: T1, ATP-dependent translocase ABCB1; assay: Inhibition of P-gp efflux in vincristine resistant human Eca-109 cells assessed as effect on accumulation of rhodamine123; assay type: cell-based
[32] = target: T1, ATP-dependent translocase ABCB1; assay: Inhibition of P-gp efflux in vincristine resistant human Eca-109 cells assessed as effect on accumulation of calcein-AM; assay type: cell-based
[33] = target: T1, ATP-dependent translocase ABCB1; assay: Inhibition of P-gp efflux in vincristine resistant human Eca-109 cells assessed as effect on accumulation of H33342; assay type: cell-based
[34] = target: Multidrug resistance-associated protein 1 (Homo sapiens, UniProt P33527); assay: Binding affinity to MRP1 in vincristine resistant human Eca-109 cells assessed as stabilization of protein at 100 uM incubated for 30 mins by thermal shift assay; assay type: cell-based; settings: eca-109, 0.5 h
Sequence of Multidrug resistance-associated protein 1 (P33527 whole entry): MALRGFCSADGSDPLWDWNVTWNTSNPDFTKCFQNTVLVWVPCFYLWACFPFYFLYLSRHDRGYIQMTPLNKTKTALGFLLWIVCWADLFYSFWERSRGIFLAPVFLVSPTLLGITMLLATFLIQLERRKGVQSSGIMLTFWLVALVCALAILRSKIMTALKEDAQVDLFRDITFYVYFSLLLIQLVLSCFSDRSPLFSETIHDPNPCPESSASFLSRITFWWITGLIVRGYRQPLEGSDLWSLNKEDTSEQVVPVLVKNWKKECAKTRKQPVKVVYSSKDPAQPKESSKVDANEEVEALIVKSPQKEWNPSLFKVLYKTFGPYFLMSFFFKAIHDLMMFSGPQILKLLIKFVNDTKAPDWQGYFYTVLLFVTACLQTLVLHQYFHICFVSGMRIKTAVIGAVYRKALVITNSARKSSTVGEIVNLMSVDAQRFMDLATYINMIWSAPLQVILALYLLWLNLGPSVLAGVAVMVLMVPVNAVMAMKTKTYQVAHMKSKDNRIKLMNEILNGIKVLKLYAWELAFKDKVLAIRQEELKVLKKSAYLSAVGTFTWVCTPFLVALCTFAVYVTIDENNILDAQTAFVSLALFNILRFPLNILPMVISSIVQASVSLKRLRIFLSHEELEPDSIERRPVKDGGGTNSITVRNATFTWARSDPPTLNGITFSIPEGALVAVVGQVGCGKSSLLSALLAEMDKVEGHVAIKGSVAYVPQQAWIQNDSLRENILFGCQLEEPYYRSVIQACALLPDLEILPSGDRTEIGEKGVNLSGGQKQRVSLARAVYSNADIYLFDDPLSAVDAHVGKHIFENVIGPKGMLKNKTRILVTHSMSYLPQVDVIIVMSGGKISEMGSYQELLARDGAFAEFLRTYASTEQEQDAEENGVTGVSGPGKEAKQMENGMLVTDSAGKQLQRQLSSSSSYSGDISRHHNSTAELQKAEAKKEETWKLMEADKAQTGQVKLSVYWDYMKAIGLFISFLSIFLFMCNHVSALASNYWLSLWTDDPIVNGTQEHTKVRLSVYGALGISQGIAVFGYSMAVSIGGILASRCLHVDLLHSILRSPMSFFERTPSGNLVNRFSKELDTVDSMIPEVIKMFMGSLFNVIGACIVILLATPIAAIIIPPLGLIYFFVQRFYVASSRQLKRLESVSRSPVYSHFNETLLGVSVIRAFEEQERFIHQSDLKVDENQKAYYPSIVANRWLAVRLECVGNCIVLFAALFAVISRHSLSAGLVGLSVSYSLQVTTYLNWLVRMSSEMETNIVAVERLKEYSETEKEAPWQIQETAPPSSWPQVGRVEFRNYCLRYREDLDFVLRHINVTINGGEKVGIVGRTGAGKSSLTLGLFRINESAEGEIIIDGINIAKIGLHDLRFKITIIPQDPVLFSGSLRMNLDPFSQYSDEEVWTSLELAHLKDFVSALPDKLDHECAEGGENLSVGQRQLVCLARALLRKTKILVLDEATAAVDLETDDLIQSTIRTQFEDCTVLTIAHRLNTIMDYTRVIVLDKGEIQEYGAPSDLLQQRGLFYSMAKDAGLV

T1 sequence (P08183 whole entry): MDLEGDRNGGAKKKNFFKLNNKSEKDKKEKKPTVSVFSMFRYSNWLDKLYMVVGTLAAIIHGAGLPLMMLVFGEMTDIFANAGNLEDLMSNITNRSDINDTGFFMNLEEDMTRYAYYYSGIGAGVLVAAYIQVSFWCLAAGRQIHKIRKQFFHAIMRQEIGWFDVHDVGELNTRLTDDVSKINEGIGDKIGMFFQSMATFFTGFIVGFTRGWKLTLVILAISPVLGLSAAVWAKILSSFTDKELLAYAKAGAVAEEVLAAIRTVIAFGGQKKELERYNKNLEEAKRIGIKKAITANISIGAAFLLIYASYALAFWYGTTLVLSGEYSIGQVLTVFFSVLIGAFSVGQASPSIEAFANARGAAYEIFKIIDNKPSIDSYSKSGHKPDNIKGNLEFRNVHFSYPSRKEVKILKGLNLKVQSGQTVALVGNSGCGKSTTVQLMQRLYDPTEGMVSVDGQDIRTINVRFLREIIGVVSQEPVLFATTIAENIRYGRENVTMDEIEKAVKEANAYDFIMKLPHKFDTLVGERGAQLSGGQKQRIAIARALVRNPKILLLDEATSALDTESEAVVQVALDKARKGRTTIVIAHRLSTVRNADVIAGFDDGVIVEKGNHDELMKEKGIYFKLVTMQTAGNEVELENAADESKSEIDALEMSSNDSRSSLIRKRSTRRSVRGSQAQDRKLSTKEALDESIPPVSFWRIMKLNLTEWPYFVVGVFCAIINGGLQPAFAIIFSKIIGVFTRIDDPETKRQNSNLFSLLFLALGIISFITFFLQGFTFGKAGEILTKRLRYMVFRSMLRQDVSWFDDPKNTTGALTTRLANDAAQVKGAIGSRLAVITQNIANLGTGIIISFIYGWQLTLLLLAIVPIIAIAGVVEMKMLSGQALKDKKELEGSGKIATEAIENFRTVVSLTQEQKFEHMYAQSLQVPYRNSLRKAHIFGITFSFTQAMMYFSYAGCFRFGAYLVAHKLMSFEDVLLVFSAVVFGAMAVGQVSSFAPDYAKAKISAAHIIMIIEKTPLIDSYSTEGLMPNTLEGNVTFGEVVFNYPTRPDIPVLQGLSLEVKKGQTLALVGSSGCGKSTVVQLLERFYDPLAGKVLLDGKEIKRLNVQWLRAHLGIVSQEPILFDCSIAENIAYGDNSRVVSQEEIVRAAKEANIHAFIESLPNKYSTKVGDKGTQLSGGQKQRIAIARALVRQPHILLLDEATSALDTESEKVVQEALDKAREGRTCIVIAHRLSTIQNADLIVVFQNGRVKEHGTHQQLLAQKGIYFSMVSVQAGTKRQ

- inhibition (INH) [1]: Tde
- solubility thermodynamic [4]: 68 µg/mL (≈ 157 µM)
- Tmax [21]: 0.38 h
- k el at 24 h [22]: 4.17e-05 s⁻¹
- half-life [23]: 7.37 h
- MRT inf [24]: 2.68 h
- AUC(0-t) at 24 h [25]: 2690 ng·h/mL
- AUC(0-inf) [26]: 2740 ng·h/mL
- AUC(0-inf) [27]: 2740 ng·h/mL
- CL/F [28]: 18.3 mL/min/kg
- CL/F [29]: 186 mL/min/kg
- inhibition (INH) [30]: Dose-Dependent Effect
- inhibition (INH) [31]: Active
- inhibition (INH) [32]: Active
- inhibition (INH) [33]: Active
- Activity [34]: Not Active
Compound: COc1cc2c(cc1OC)C(Cc1ccc(OC)c(OCc3ccccc3)c1)N(C)CC2 (stereo not given)
- Activity (ECa-109 cell line [2]): 95.3%
- fold change (FC) (ECa-109 cell line [3]): 690.6
- IC50 (ECa-109 cell line [5]): > 100 µM
- IC50 at 48 h [6]: > 50 µM
- fold change (FC) (ECa-109 cell line [7]): 3.7
- fold change (FC) (ECa-109 cell line [8]): 690.6
- Activity (ECa-109 cell line [9]): 2.51%
- Activity (ECa-109 cell line [10]): 6.12%
- Activity (ECa-109 cell line [11]): 6.58%
- viability at 1 µM (ECa-109 cell line [12]): 76.1%
- viability at 2.5 µM (ECa-109 cell line [13]): 70.5%
- viability at 5 µM (ECa-109 cell line [14]): 64.5%
- Activity (ECa-109 cell line [15]): 14.9%
- Activity (ECa-109 cell line [16]): 9.81%
- Activity (ECa-109 cell line [17]): 0.42%
- CI (ECa-109 cell line [18]): <1
- Activity [19]: Non-Toxic
- Activity (ECa-109 cell line [20]): Active
- Activity (ECa-109): inactive

Source: ChEMBL document CHEMBL5247655, “Simplified Derivatives of Tetrandrine as Potent and Specific P-gp Inhibitors to Reverse Multidrug Resistance in Cancer Chemotherapy” (J Med Chem, 2023)
